Source: ChEMBL document CHEMBL1135683, “2002 Alfred Burger Award Address in Medicinal Chemistry. Natural products and design: interrelated approaches in drug discovery” (J Med Chem, 2002)
One block for each compound: values may come before it. Where a SMILES comes first, the peptide text is derived from it. The star is where a group is joined. Octanoyl = CCCCCCCC(=O)*

What was measured:
[1] = molecular target: T1, Angiotensin-converting enzyme (Homo sapiens, UniProt P12821); test: Inhibition of Angiotensin I converting enzyme (ACE) in Bothrops jararaca venom
[2] = molecular target: Growth hormone secretagogue receptor type 1 (Homo sapiens, UniProt Q92847); test: Ability to displace [125I]ghrelin from cloned human Growth hormone secretagogue receptor type I (GSH1a) expressed in COS-7 cells; format: cell-based
[3] = molecular target: T1, Angiotensin-converting enzyme; test: Inhibitory activity against Angiotensin I converting enzyme (ACE) in venom of Bothrops jararaca; format: tissue-based
[4] = molecular target: Somatostatin receptor type 1 (Homo sapiens, UniProt P30872); test: Binding affinity towards Somatostatin receptor type 1 (hsst1)
[5] = molecular target: Somatostatin receptor type 4 (Homo sapiens, UniProt P31391); test: Binding affinity towards Somatostatin receptor type 4 (hsst4)
[6] = molecular target: Somatostatin receptor type 5 (Homo sapiens, UniProt P35346); test: Binding affinity towards Somatostatin receptor type 5 (hsst5)
[7] = molecular target: Somatostatin receptor type 3 (Homo sapiens, UniProt P32745); test: Binding affinity towards Somatostatin receptor type 3 (hsst3)
[8] = The compound was evaluated for the inhibition of Glycolate oxidase
[9] = molecular target: T1, Angiotensin-converting enzyme; test: The compound was evaluated for the (%) inhibition of Angiotensin I converting enzyme in venom of Bothrops jararaca at the dose of 10e-4 M; format: tissue-based

T1 sequence (P12821 whole entry): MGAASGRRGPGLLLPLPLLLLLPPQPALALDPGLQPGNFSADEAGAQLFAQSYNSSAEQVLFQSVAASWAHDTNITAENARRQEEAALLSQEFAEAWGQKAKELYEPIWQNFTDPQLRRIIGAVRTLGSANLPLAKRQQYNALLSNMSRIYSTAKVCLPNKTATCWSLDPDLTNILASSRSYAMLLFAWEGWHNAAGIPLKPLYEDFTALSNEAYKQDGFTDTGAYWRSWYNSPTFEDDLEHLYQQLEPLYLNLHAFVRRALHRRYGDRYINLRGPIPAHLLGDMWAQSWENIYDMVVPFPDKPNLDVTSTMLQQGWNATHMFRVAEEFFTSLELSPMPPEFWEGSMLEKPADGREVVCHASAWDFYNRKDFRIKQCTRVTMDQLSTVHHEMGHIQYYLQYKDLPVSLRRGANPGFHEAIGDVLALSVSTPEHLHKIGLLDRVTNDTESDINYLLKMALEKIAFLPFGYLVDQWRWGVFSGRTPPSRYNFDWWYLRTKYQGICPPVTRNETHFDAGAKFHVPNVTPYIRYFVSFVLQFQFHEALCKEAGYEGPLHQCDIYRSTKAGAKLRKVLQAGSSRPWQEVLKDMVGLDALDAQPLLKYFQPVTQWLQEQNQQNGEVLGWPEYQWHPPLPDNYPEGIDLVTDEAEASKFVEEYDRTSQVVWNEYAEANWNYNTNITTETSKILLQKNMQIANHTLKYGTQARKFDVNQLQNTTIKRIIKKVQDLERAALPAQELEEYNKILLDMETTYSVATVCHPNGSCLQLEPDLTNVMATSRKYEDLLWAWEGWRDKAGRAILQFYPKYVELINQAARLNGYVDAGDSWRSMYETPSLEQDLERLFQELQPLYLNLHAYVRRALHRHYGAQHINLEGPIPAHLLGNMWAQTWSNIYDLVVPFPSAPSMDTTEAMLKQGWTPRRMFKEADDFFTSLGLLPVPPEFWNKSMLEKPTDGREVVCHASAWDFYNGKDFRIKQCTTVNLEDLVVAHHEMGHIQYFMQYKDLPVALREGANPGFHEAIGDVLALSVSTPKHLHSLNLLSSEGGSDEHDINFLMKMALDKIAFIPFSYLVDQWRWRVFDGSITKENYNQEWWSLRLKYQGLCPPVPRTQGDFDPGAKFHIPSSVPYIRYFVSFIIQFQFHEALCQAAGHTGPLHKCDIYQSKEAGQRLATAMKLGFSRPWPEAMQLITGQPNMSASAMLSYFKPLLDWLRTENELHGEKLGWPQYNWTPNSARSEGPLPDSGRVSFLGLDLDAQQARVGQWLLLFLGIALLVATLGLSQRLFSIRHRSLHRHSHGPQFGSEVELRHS
Sequence of Somatostatin receptor type 5 (P35346 whole entry): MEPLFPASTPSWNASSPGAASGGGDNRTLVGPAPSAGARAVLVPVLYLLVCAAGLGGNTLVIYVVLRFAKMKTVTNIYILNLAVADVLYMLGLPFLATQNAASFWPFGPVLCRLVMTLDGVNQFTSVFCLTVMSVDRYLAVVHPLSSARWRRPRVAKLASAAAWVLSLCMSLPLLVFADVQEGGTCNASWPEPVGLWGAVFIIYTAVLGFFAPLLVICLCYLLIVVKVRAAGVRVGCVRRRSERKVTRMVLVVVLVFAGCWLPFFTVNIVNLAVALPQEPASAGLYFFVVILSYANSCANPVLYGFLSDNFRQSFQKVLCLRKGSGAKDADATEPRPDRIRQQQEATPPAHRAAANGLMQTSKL
Sequence of Somatostatin receptor type 3 (P32745 whole entry): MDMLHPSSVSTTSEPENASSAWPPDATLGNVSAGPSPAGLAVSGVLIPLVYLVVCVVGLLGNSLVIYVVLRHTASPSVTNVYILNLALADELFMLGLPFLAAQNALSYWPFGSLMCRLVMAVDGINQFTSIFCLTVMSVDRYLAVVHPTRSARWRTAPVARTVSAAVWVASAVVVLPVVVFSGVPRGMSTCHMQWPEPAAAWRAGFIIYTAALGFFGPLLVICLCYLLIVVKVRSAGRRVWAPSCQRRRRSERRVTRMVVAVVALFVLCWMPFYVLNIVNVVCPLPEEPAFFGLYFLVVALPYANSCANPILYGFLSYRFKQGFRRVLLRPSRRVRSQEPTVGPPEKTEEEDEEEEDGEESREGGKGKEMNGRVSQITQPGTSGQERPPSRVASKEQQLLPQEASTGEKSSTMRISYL
Sequence of Somatostatin receptor type 4 (P31391 whole entry): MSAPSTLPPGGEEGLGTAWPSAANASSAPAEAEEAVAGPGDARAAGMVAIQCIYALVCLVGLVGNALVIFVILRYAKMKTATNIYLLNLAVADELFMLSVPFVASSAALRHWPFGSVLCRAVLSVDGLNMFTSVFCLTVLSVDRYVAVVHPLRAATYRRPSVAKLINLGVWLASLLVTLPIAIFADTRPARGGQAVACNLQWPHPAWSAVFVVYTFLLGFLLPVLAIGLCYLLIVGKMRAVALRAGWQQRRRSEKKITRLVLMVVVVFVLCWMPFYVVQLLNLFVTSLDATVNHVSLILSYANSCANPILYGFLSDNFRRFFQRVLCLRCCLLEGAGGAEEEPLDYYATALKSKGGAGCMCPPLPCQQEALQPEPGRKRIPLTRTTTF
Sequence of Somatostatin receptor type 1 (P30872 whole entry): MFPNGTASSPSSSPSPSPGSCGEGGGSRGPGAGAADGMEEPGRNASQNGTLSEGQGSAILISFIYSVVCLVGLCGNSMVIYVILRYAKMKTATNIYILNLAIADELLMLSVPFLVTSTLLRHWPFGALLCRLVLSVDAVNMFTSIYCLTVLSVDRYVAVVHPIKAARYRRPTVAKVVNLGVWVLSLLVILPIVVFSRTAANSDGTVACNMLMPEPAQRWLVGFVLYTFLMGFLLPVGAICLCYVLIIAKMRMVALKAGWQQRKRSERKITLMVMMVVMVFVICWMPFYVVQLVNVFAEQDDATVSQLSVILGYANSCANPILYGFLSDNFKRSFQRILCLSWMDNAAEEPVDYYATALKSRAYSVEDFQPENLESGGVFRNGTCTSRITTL
Sequence of Growth hormone secretagogue receptor type 1 (Q92847 whole entry): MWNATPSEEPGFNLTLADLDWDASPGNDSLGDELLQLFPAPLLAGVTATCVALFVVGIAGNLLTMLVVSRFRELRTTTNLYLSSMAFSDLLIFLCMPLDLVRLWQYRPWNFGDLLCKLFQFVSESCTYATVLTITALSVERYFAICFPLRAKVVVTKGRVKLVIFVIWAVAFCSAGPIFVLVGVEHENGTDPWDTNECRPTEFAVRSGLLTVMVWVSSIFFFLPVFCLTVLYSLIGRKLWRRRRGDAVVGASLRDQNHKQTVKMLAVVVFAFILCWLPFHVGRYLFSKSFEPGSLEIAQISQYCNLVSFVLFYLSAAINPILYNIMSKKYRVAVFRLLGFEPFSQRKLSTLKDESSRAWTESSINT

Compound: H-EKWAP-OH
IC50 [1]: 60 nM

IC50 [2]: 0.71 nM
Compound: CCCCCCCC(=O)OC[C@H](NC(=O)[C@H](CO)NC(=O)CN)C(=O)N[C@@H](Cc1ccccc1)C(=O)N[C@@H](CC(C)C)C(=O)N[C@@H](CO)C(=O)N1CCC[C@H]1C(=O)N[C@@H](CCC(=O)O)C(=O)N[C@@H](Cc1c[nH]cn1)C(=O)N[C@@H](CCC(N)=O)C(=O)N[C@@H](CCCN=C(N)N)C(=O)N[C@H](C(=O)N[C@@H](CCC(N)=O)C(=O)N[C@@H](CCC(N)=O)C(=O)N[C@@H](CCCN=C(N)N)C(=O)N[C@@H](CCCCN)C(=O)N[C@@H](CCC(=O)O)C(=O)N[C@@H](CO)C(=O)N[C@@H](CCCCN)C(=O)N[C@@H](CCCCN)C(=O)N1CCC[C@H]1C(=O)N1CCC[C@H]1C(=O)N1CCC[C@H]1C(=O)N[C@@H](C)C(=O)N[C@@H](CCCCN)C(=O)N[C@@H](CC(C)C)C(=O)N[C@@H](CCC(N)=O)C(=O)N1CCC[C@H]1C(=O)N[C@@H](CCCN=C(N)N)C(=O)O)C(C)C (H-GSS(Octanoyl)FLSPEHQRVQQRKESKKPPPAKLQPR-OH)

Compound: O=CC(Cc1ccccc1)NC(CCc1ccccc1)C(=O)O (stereo unspecified)
Ki [3]: 50000 nM

Ki [4]: 2390 nM | Ki [5]: 81 nM | Ki [6]: 163 nM | Ki [7]: 31 nM
Compound: C[C@@H](c1c[nH]c2ccccc12)[C@@H](NC(=O)N1CCC(n2c(=O)[nH]c3ccccc32)CC1)C(=O)N[C@@H](CCCCN)C(=O)OC(C)(C)C

Compound: CC(CCC(=O)N1CCC[C@H]1C(=O)O)C(=O)O (stereo partly specified)
IC50 [1]: 260000 nM

Compound: O=C(O)CCCC(=O)N1CCC[C@H]1C(=O)O
IC50 [1]: 70000 nM

IC50 [8]: 60 nM
Compound: O=C(O)/C(O)=C\C(=O)c1ccc(-c2ccc(Br)cc2)cc1

Compound: O=C(O)CCC(=O)N1CCC[C@H]1C(=O)O
inhibition [9]: 43%
